# From patent publication US11478513B2, “Cutibacterium avidum strain, and composition for preventing or treating atopic dermatitis, comprising strain or cultured product thereof” (priority 2018, dated 2022)
# What was measured:
# [1] = tested on: Cutibacterium acnes ATCC 6919; assay: Growth inhibition, overlay clear zone test (C. acnes); format: cell-based; details: RCM agar overlay, anaerobic, 37° C., about 72 hours; triclosan 200 mg/ml
# Description: (§1) The effect of growth inhibition of S. aureus and C. acnes was confirmed by observing formation of a clear zone. […] The experiment was progressed, expecting that S. aureus and C. acnes around Cutibacterium avidum GENSC01 could not grow and they became transparent, if Cutibacterium avidum GENSC01 had the effect of inhibiting the growth of bacteria. The Cutibacterium avidum GENSC01 culture broth was collected with a platinum loop and was anaerobically cultured in a thin RCM agar plate at 37° C. for 72 hours by drawing a line about 2.5 cm. After confirming that Cutibacterium avidum GENSC01 sufficiently grew, S. aureus and C. acnes strains adjusted to 10^4 cfu/ml were inoculated in 10 ml RCM agar at about 45° C. which was not yet solidified, and they were well suspended before the medium was hardened, and they were evenly solidified by pouring them on the agar plate in which Cutibacterium avidum GENSC01 grew. In the solidified agar plate, S. aureus and C. acnes were further cultured anaerobically at 37° C. for about 40 hours and about 72 hours, respectively, to observe the size of the clear zone appearing around Cutibacterium avidum GENSC01. As the negative control group, phosphate-buffered saline (PBS) was used, and as the positive control group, triclosan was used, and S. aureus and C. acnes were treated at an amount of 10 mg/ml and 200 mg/ml, respectively.
# [2] = tested on: Staphylococcus aureus KCTC 1621; assay: Growth inhibition, overlay clear zone test (S. aureus); format: cell-based; details: RCM agar overlay, anaerobic, 37° C., about 40 hours; triclosan 10 mg/ml
# Description: as §1
# HaCaT cells = assay: Cytotoxicity (MTT) in HaCaT cells; format: cell-based, human; details: experimental group in which rosmarinic acid was added, 48 hours
# Description: To evaluate the cytotoxicity of fermented filtrates prepared in the Example 3, the following experiment was progressed. HaCaT cells were attached on a 96-well cell culture plate for 24 hours at 5×10^3 cells/well each and then the test group samples were added by concentration to culture it under the condition of 5% CO2 and 37° C. for 48 hours. 48 hours later, the cultured cell medium was removed, and 0.5 mg/ml dimethylthiazol-2-y1)-2-5-diphenyltetrazolium bromide (MTT) formazan solution was treated to cells, and they were reacted for 4 hours, and after the time passage, all the cell medium was removed and the formazan solution was dissolved by DMSO and then the absorbance was measured at 570 nm with SpectraMax M2. Then, the survival rate of the HaCaT cell line was calculated by converting with the equation of O.Dsample/O.Dcontrol×100.
# IL-8 = IL-8 RNA expression in HaCaT cells treated with heat-treated C. acnes; format: cell-based, human; details: pre-treated 1 hour, heat-treated C. acnes (100MOI) 4 hours, real-time PCR; compared to control group induced to C. acnes; FIG. 11
# Description: (§2) At first, GENSCO1 fermented filtrates were pre-treated for 1 hour to cells in which 2×10^5 of HaCaT human keratinocyte lines were attached in a 6-well plate, respectively, by culturing them in a 37° C. and 5% CO2 incubator for 24 hours. Then, the heat-treated C. acnes (100MOI) was treated and was reacted for 4 hours. Then, after extracting RNA for each sample, the RNA expression for the inflammation response cytokine factors, IL-6 and IL-8 was confirmed by real-time PCR.
# IL-6 = IL-6 RNA expression in HaCaT cells treated with heat-treated C. acnes; format: cell-based, human; details: pre-treated 1 hour, heat-treated C. acnes (100MOI) 4 hours, real-time PCR; FIG. 12
# Description: as §2
SMILES,growth inhibition of C. acnes (clear zone) [1],growth inhibition of S. aureus (clear zone) [2],cell survival rate (HaCaT cells),IL-8 expression (inflammation response) (IL-8),expression of IL-6 (IL-6)
Oc1cc(Cl)ccc1Oc1ccc(Cl)cc1Cl [triclosan],"the clear zone was observed, but it had much smaller area than GENSC01 treatment","the clear zone was observed, but it had much smaller area than GENSC01 treatment",,,
O=C(/C=C/c1ccc(O)c(O)c1)O[C@H](Cc1ccc(O)c(O)c1)C(=O)O [rosmarinic acid],,,could be increased,inflammation response was reduced,reduced at a similar level
